From PubChem BioAssay (NCI)
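1) Cells in 96-well plates. 2) Compound, 48 h, 5 concentrations. 3) Linear interpolation between surrounding doses. 4) Unreached endpoint = highest concentration. GI50 marks 50% less growth. TGI marks complete inhibition of growth.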

Key:
Test in all cases: growth of human tumour cells (NCI), 48 h
ACHN renal = tested on: ACHN renal
OVCAR-8 ovarian = tested on: OVCAR-8 ovarian
A549 NSCLC = tested on: A549 NSCLC
SF-539 CNS = tested on: SF-539 CNS
UACC-257 melanoma = tested on: UACC-257 melanoma
MDA-MB-435 = tested on: MDA-MB-435
HOP-92 NSCLC = tested on: HOP-92 NSCLC
COLO 205 colon = tested on: COLO 205 colon
HOP-18 NSCLC = tested on: HOP-18 NSCLC
DMS 114 small cell lung = tested on: DMS 114 small cell lung
DMS 273 small cell lung = tested on: DMS 273 small cell lung

Row | Compound | GI50 (ACHN renal) [µM] | TGI (ACHN renal) [µM] | GI50 (OVCAR-8 ovarian) [µM] | TGI (OVCAR-8 ovarian) [µM] | GI50 (A549 NSCLC) [µM] | TGI (A549 NSCLC) [µM] | GI50 (SF-539 CNS) [µM] | TGI (SF-539 CNS) [µM] | GI50 (UACC-257 melanoma) [µM] | TGI (UACC-257 melanoma) [µM] | GI50 (MDA-MB-435) [µM] | TGI (MDA-MB-435) [µM] | GI50 (HOP-92 NSCLC) [µM] | TGI (HOP-92 NSCLC) [µM] | GI50 (COLO 205 colon) [µM] | TGI (COLO 205 colon) [µM] | TGI (HOP-18 NSCLC) [µM] | TGI (DMS 114 small cell lung) [µM] | TGI (DMS 273 small cell lung) [µM]
1 | OCc1ncc(-c2ccccc2)s1 | > 100 | > 100 | > 100 | > 100 | > 100 | > 100 | > 100 | > 100 | > 100 | > 100 | > 100 | > 100 | 76.5 | > 100 | > 100 | > 100 |  |  | 
2 | NCCn1cnc2nc(NC(=O)c3ccccc3)[nH]c(=O)c21 |  | > 100 |  | > 100 |  | > 100 |  | > 100 |  | > 100 |  |  |  | > 100 |  | > 100 | > 100 | > 100 | 
3 | CCOc1ccc(NC(=O)c2cc3ccccc3cc2O)cc1 | 49.9 | > 100 | 47.8 | > 100 | > 100 | > 100 | 33.2 | > 100 | > 100 | > 100 | > 100 | > 100 | 11.7 | 38.5 | > 100 | > 100 |  |  | 
4 | Cc1cc(Cl)cc2c1NC(=O)C2(O)CC(=O)c1ccc(F)cc1 (configuration not stated) |  | > 100 |  | > 100 |  | 81.1 |  | > 100 |  | > 100 |  |  |  | > 100 |  | > 100 | 90.7 |  | > 100
5 | CSC(=NC#N)S/C=C/C(=O)c1cccc2ccccc12 | 28.3 | 82 | 31.9 | > 100 | 29.3 | > 100 | 17.6 | 68.2 | 21.3 | 47.2 | 24.5 | 85.5 | 19.3 | 66.6 | 34.3 | > 100 |  |  | 
6 | CC(C)c1ccc(/C=N/N=C(N)N)cc1 | 11.7 | 25.4 | 10.8 | 28.3 | 4.91 | 18.8 | 11.6 | 25.3 | 8.74 | 24.1 | 1.63 | 4.72 | 1.35 | 7.27 | 1.72 | 3.33 |  |  | 
7 | OCC#CCCCCOCC#Cc1ccccc1C#CCOCCCCC#CCO | 21.7 | 58.7 | 52.3 | > 100 | 39.8 | > 100 | 17.6 | 33.2 | 37.3 | > 100 | 20 | 45.9 | 28.8 | 62 | 27.1 | > 100 |  |  | 
8 | Cc1ccc(N(/C=C/C(=O)C(F)(F)F)CC(=O)c2ccc(Cl)c(Cl)c2)cc1 | 12.2 | 24.6 | 14.1 | 27.1 | 9.37 | 21.3 | 2.77 | 17 | 10.3 | 22 | 1.92 | 3.82 | 8.77 | 21.1 | 10 | 21.6 |  |  | 
9 | CCOC(=O)C1=C(c2ccccc2)NC(c2ccccc2)=C(C(=O)OCC)c2c1c(=O)cc[nH]c2=O |  | > 100 |  | > 100 |  | > 100 |  | > 100 |  | > 100 |  |  |  | > 100 |  | > 100 |  |  | > 100
10 | Cn1ccc2c3c(=O)cc[nH]c3ccc21 | > 100 | > 100 | > 100 | > 100 | > 100 | > 100 | > 100 | > 100 | > 100 | > 100 | > 100 | > 100 | 69.2 | > 100 | > 100 | > 100 |  |  | 
11 | C[n+]1cc2cc3c(cc2c2ccccc21)OCO3 | 41.7 | > 100 | 3.04 | 30.5 | 2.41 | 14.4 | 4.83 | 23.8 | 3.85 | 14 | 5.32 | 21 | 2.77 | 23.8 | 4.48 | 24 |  |  | 
12 | CC(=O)OC1CC2(O)C(CCC3(C)C(c4ccc(=O)oc4)CCC32O)C2(C)CCC(OC3OC(CO)C(O)C(O)C3O)C=C12 (configuration not stated) | < 0.01 | 0.036 | 0.0294 | 0.126 | < 0.01 | 0.0278 | 0.0144 | 0.0331 | 0.0383 | 0.206 | 0.0342 | 0.139 | 0.0494 | 0.318 | 0.0554 | 0.274 |  |  | 
13 | Cc1ccc(S(=O)(=O)N[C@@H](Cc2ccccc2)C(=O)CCl)cc1 | 13 | 28.1 | 17.8 | > 100 | 42.6 | > 100 | 2.26 | 5.68 | 43.2 | > 100 |  | 30.7 | 2.19 | 12 | 19.9 | 52.3 |  |  | 
14 | COc1ccc(Nc2ncc(-c3ccccc3)o2)cc1OC | 8.59 | > 25 | 16.2 | > 25 | 15.2 | > 25 | 5.34 | > 25 | > 25 | > 25 | > 19.5 | > 25 | 6.04 | > 25 | 18.4 | > 25 |  |  | 
15 | CC(=O)[O][Hg][CH2]C1(C)COC(C)([CH2][Hg][O]C(C)=O)CO1 (configuration not stated) | 1.5 | 2.84 | 6.03 | 52.1 | 7.79 | 38.4 | 17.7 | 32.6 | 4.51 | 10.5 | 2.72 | 7.18 | 5.62 | 19.1 | 1.47 | 3.15 |  |  | 
